# Measurements reported in US20250129021A1, “SMALL MOLECULE PROTEIN SYNTHESIS MODULATORS” (Interdict Bio, Inc., priority 2023, published 2025).
# Read-outs that look alike come from different tables or passages of the source.
# Tests used:
# Type in all cases: biochemical
# [1] = test system: MYC; experiment: In vitro transcription-translation (IVTT) assay, MYC reporter; conditions: IVTT assay, HeLa S3 lysate, MYC reporter, normalized sfGFP/mCherry ratio; half-log dilutions 30 μM-0.1 μM, 2 hrs at 30° C.
# In short: (§1)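 Reporter: mCherry, P2A, then 3×FLAG-target peptide-sfGFP fusion, IRES-initiated; HeLa S3 lysate IVTT; cpd dilutions 30 μM−0.1 μM half-log in 100% DMSO (dilution-plate conc); DNA added last; 2 h, 30° C; PBS quench.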
# [2] = test system: CCND1; experiment: In vitro transcription-translation (IVTT) assay, CCND1 reporter; conditions: IVTT, HeLa S3 lysate, 2 hrs at 30° C.
# In short: as §1
# [3] = test system: MCL-1; experiment: In vitro transcription-translation (IVTT) assay, MCL-1 reporter; conditions: HeLa S3 lysate, read-out: MCL1 IC50
# In short: as §1
# [4] = test system: CCNE1; experiment: In vitro transcription-translation (IVTT) assay, CCNE1 reporter; conditions: HeLa S3 lysate, 2 hrs at 30° C.
# In short: (§2)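 IC50 fitted from the sfGFP/mCherry fluorescence ratio, normalized to no-drug control after no-DNA background subtraction. Reactions ran 2 h at 30° C in HeLa S3 cell lysate with reporter plasmid DNA and half-log compound titrations (30 μM−0.1 μM, in DMSO).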
# [5] = test system: CCNTB1; experiment: In vitro transcription-translation (IVTT) assay, CCNTB1 reporter; conditions: HeLa S3 lysate, 2 hrs at 30° C.
# In short: as §2
# [6] = test system: CCNE1; experiment: In vitro transcription-translation (IVTT) assay, CCNE1 reporter; conditions: HeLa S3 lysate, sfGFP/mCherry ratio
# Method: In vitro transcription-translation assay setup: Each assay includes a master mix containing lysate and shared components, a 96-well plate containing compound titrations for testing, a 96-well DNA plate with reporter constructs to be tested, 96-well skirted PCR plates, and 96-well flat-bottom, black, fluorescent assay plates. Reaction materials setup: (A) Master mix—15 mL conical tube (3 mL of HeLa S3 Lysate described above; 0.6 mL of ThermoFisher Accessory Proteins (#88882); 1.2 ml of ThermoFisher Reaction Mix (#88882); 0.54 mL of nuclease-free Water); (B) 96-Well Master Mix+Compound Plate (Half-log dilutions (30 μM−0.1 μM) of 4 compounds of interest are prepared in 100% DMSO); 96-Well DNA Plate (Five DNA constructs are plated into single columns within the plate. Row 1 of the column contains nuclease free H2O, all other wells contain 110 ng/μL plasmid DNA). Reactions are started by mixing 155 μL of master mix and 3.5 μL of compound serial dilutions, then 9.1 μL of master mix+compound mixture is aliquoted across 5 96-well plates. Reactions begin with final addition of 2 μL of DNA for a 11.1 μL reaction volume in each well. The entire plate is sealed, and incubated for 2 hrs at 30° C. After 2 hrs, quench the assay using 45 μL of PBS, and transfer 50 μL to a flat-bottom black microplate Quantify the sfGFP and mCherry signals from each well on each plate, taking 3 reads of each plate, and perform data analysis below.
# In vitro transcription-translation assay data analysis: Each plate is read three times in channels for both sfGFP and mCherry signals. The average signal across these 3 reads is then calculated for further analysis. Control wells containing no DNA reporter are subtracted from reporter wells in the same column to remove auto-fluorescence of the lysate. Then, the ratio of sfGFP/mCherry is calculated per well, and these ratios are averaged across the triplicate experiments on the same plate. Finally, the ratio of each titration concentration is normalized to the no drug control to create the normalized stalling metric. The error on this measurement is determined by propagating error through the averaging and normalization steps. Values are plotted and fit for IC50 determination for each test sequence and titration of compound.
# [7] = IVTT assay, sfGFP/mCherry ratio
IC50 [2] [µM],"IC50 ([3]; IVTT, 2 hrs at 30° C.) [µM]",IC50 [4] [µM],IC50 [5] [µM],"IC50 [3, 7] [µM]",IC50 [6] [µM],SMILES,IC50 [1] [µM]
–,–,–,–,< 10,< 10,"O=C(NCC[C@@H]1CCN1)O[C@@H]1[C@@H](O)CN[C@@H]1Cc1ccc(C(F)F)cc1 [V193008, (2R,3S,4S)-2-{[4-(difluoromethyl)phenyl]methyl}-4-hydroxypyrrolidin-3-yl N-{2-[(2S)-azetidin-2-yl]ethyl}carbamate]",< 10
–,–,–,–,10 to 20,< 10,"O=C(NCC[C@@H]1CCNC1)O[C@@H]1[C@@H](O)CN[C@@H]1Cc1ccc(C(F)F)cc1 [V193010, (2R,3S,4S)-2-(4-(difluoromethyl)benzyl)-4-hydroxypyrrolidin-3-yl (2-((S)-pyrrolidin-3-yl)ethyl)carbamate]",< 10
–,–,–,–,< 10,< 10,"O=C(NCC[C@@H]1CCNC1)O[C@@H]1[C@@H](O)CN[C@@H]1Cc1ccc(-c2cnco2)cc1 [V193011, (2R,3S,4S)-4-hydroxy-2-{[4-(1,3-oxazol-5-yl)phenyl]methyl}pyrrolidin-3-yl N-{2-[(3S)-pyrrolidin-3-yl]ethyl}carbamate]",< 10
–,–,–,–,< 10,< 10,"O=C(NCC[C@H]1CCCCNC1)O[C@@H]1[C@@H](O)CN[C@@H]1Cc1ccc(-c2cnco2)cc1 [V193012, (2R,3S,4S)-4-hydroxy-2-(4-(oxazol-5-yl)benzyl)pyrrolidin-3-yl (2-((R)-azepan-3-yl)ethyl)carbamate]",< 10
–,–,–,–,< 10,< 10,"O=C(NCC[C@@H]1CCCCNC1)O[C@@H]1[C@@H](O)CN[C@@H]1Cc1ccc(-c2cnco2)cc1 [V193013, (2R,3S,4S)-4-hydroxy-2-{[4-(1,3-oxazol-5-yl)phenyl]methyl}pyrrolidin-3-yl N-{2-[(3S)-azepan-3-yl]ethyl}carbamate]",< 10
–,–,–,–,< 10,< 10,"O=C(NCC[C@H]1CC2(CC2)CN1)O[C@@H]1[C@@H](O)CN[C@@H]1Cc1ccc(-c2cnco2)cc1 [V193018, (2R,3S,4S)-4-hydroxy-2-(4-(oxazol-5-yl)benzyl)pyrrolidin-3-yl (2-((R)-5-azaspiro[2.4]heptan-6-yl)ethyl)carbamate]",< 10
–,–,–,–,< 10,< 10,"O=C(NCCOC(F)F)O[C@@H]1[C@@H](O)CN[C@@H]1Cc1ccc(-c2cnco2)cc1 [V193066, (2R,3S,4S)-4-hydroxy-2-(4-(oxazol-5-yl)benzyl)pyrrolidin-3-yl (2-(difluoromethoxy)ethyl)carbamate]",< 10

# The remaining lines, values behind:
SMILES,IC50 [2] [µM],"IC50 ([3]; IVTT, 2 hrs at 30° C.) [µM]",IC50 [4] [µM],IC50 [5] [µM],"IC50 [3, 7] [µM]",IC50 [6] [µM],IC50 [1] [µM]
"COc1ccc(C[C@H]2NC[C@H](O)[C@H]2OC(=O)NCCn2ccnc2N)cc1 [V188086, (2R,3S,4S)-4-hydroxy-2-[(4-methoxyphenyl)methyl]pyrrolidin-3-yl N-[2-(2-aminoimidazole-1-yl)ethyl]carbamate]",10 to 20,10 to 20,< 10,< 10,–,–,10 to 20
"COc1ccc(C[C@H]2NC[C@H](O)[C@H]2OC(=O)NCc2ccc3cn[nH]c3c2)cc1 [V188151, (2R,3S,4S)-4-hydroxy-2-[(4-methoxyphenyl)methyl]pyrrolidin-3-yl N-(1H-indazol-6-ylmethyl)carbamate]",< 10,< 10,< 10,< 10,–,–,< 10
"COc1ccc(C[C@H]2NC[C@H](O)[C@H]2OC(=O)NC[C@H]2CCN(c3ncccn3)C2)cc1 [V188171, (2R,3S,4S)-4-hydroxy-2-[(4-methoxyphenyl)methyl]pyrrolidin-3-yl N-{[(3R)-1-(pyrimidin-2-yl)pyrrolidin-3-yl]methyl}carbamate]",10 to 20,< 10,10 to 20,< 10,–,–,10 to 20
"COc1ccc(C[C@H]2NC[C@H](O)[C@H]2OC(=O)NCc2ccnc(N3CCC3)c2)cc1 [V188225, (2R,3S,4S)-4-hydroxy-2-[(4-methoxyphenyl)methyl]pyrrolidin-3-yl N-{[2-(azetidin-1-yl)pyridin-4-yl]methyl}carbamate]",< 10,< 10,< 10,< 10,–,–,< 10
"COc1ccc(C[C@H]2NC[C@H](O)[C@H]2OC(=O)NCCC2CCNCC2)cc1 [V188229, (2R,3S,4S)-4-hydroxy-2-[(4-methoxyphenyl)methyl]pyrrolidin-3-yl N-[2-(piperidin-4-yl)ethyl]carbamate]",10 to 20,< 10,10 to 20,< 10,–,–,< 10
"O=C(NCc1cc[nH]c(=O)c1)O[C@@H]1[C@@H](O)CN[C@@H]1Cc1ccc(Cl)cc1 [V188274, (2R,3S,4S)-2-[(4-chlorophenyl)methyl]-4-hydroxypyrrolidin-3-yl N-[(2-oxo-1H-pyridin-4-yl)methyl]carbamate]",< 10,< 10,< 10,< 10,–,–,< 10
"O=C(NC[C@H]1CCOC1)O[C@@H]1[C@@H](O)CN[C@@H]1Cc1ccc(Cl)cc1 [V188287, (2R,3S,4S)-2-[(4-chlorophenyl)methyl]-4-hydroxypyrrolidin-3-yl N-[(3R)-oxolan-3-ylmethyl]carbamate]",< 10,< 10,< 10,< 10,–,–,< 10
"O=C(NCc1cnoc1)O[C@@H]1[C@@H](O)CN[C@@H]1Cc1ccc(Cl)cc1 [V188289, (2R,3S,4S)-2-[(4-chlorophenyl)methyl]-4-hydroxypyrrolidin-3-yl N-(1,2-oxazol-4-ylmethyl)carbamate]",< 10,< 10,< 10,< 10,–,–,< 10
"CNC(=O)c1ccc(CNC(=O)O[C@@H]2[C@@H](O)CN[C@@H]2Cc2ccc(OC)cc2)cc1 [V188305, (2R,3S,4S)-4-hydroxy-2-[(4-methoxyphenyl)methyl]pyrrolidin-3-yl N-{[4-(methylcarbamoyl)phenyl]methyl}carbamate]",< 10,–,< 10,< 10,–,–,< 10
"O=C(NCc1cnsc1)O[C@@H]1[C@@H](O)CN[C@@H]1Cc1ccc(C(F)F)cc1 [V192929, (2R,3S,4S)-2-(4-(difluoromethyl)benzyl)-4-hydroxypyrrolidin-3-yl (isothiazol-4-ylmethyl)carbamate]",–,–,–,–,< 10,< 10,< 10
"O=C(NCCOC(F)(F)F)O[C@@H]1[C@@H](O)CN[C@@H]1Cc1ccc(C(F)F)cc1 [V192930, (2R,3S,4S)-2-(4-(difluoromethyl)benzyl)-4-hydroxypyrrolidin-3-yl (2-(trifluoromethoxy)ethyl)carbamate]",–,–,–,–,< 10,< 10,< 10
"O=C(NCC[C@@H]1CCN1)O[C@@H]1[C@@H](O)CN[C@@H]1Cc1ccc(OC(F)F)cc1 [V192938, (2R,3S,4S)-2-{[4-(difluoromethoxy)phenyl]methyl}-4-hydroxypyrrolidin-3-yl N-{2-[(2S)-azetidin-2-yl]ethyl}carbamate]",–,–,–,–,< 10,< 10,< 10
"O=C(NCC[C@@H]1CCN1)O[C@@H]1[C@@H](O)CN[C@@H]1Cc1ccc(-c2cnco2)cc1F [V192990, (2R,3S,4S)-2-(2-fluoro-4-(oxazol-5-yl)benzyl)-4-hydroxypyrrolidin-3-yl (2-((S)-azetidin-2-yl)ethyl)carbamate]",–,–,–,–,< 10,< 10,< 10
"O=C(NCC[C@@H]1CCN1)O[C@@H]1[C@@H](O)CN[C@@H]1Cc1ccc(-c2cnco2)c(F)c1 [V192991, (2R,3S,4S)-2-(3-fluoro-4-(oxazol-5-yl)benzyl)-4-hydroxypyrrolidin-3-yl (2-((S)-azetidin-2-yl)ethyl)carbamate]",–,–,–,–,< 10,< 10,< 10
